The source of these data is patent publication US6440446B1, “Agent for anti-osteoporosis” (Kabushiki Kaisha Hayashibara Seibutsu Kagaku Kenkyujo, priority 1998, dated 2002).

Like-named read-outs stand apart in the source and are kept apart here.

The test system of data set [1] is ovary-extracted mice (oophorectomized osteoporosis). Description: Animal experiment: intravenous injection to ovary-extracted mice on low-calcium feed, dry weight of femurs and tibia microscopy. Type of data set: in vivo, female ddY mice. As to conditions: for Bone content compared with the control groups (ovaries extracted, PBS): administered in place of trehalose, data not shown; for Dry weight of extracted tibia / Dry weight of extracted tibia / Body weight: tail vein, 5 ml/kg body weight/shot, once daily, five times a week. How it is done:
An injection containing 10 w/w % trehalose, obtained by the later described Example 7, was diluted with a phosphate buffered saline, which had been filtered with a membrane filter having a pore size of 0.22 μm (hereinafter abbreviated as “PBS”) into a 0.1 w/w % or 1 w/w % trehalose solution. These solutions and the above injection were used for test samples. According to what is done conventionally, female ddY mice, 4-week-old, which had been grouped into 34 heads/group based on their body weight, were anesthetized with sodium pentobarbital, and extracted their ovaries. From the next day, the mice were injected from their tail veins with any one of the test samples at a dose of 5 ml/kg body weight/shot, once every day and five times a week. […] The feed used was a low-calcium feed for ease of making the difference of the bone content.
In parallel, the following control groups were provided and treated similarly as the group with trehalose: As control 1, a group in which mice were administered with the same amount of PBS as the test samples in place of them; and as control 2, a group in which mice, that were received with a laparotomy pseudo-operation and were not extracted their ovaries, were administered with the same amount of PBS as the test samples in place of them. Some of the mice administered with trehalose using one w/w t trehalose solution, and the mice in controls 1 and 2 as non-trehalose administration groups were extracted their tibias, followed by observing the tibias microscopically. The specimens for microscopic observation were prepared in the usual manner by immobilizing the extracted tibias with formalin solution, washed with water, delimed, split along with the long axis, and treated with protease K to remove bone marrow cells. The specimens of tibias were observed by a relatively-low vacuum electron-microscope under 24 magnifications, and photographed. The data are respectively in FIGS. 4 to 6. In these figures, white parts are the trabecula of cancellous bone. The osteoporosis occurred in mice extracted their ovaries is called oophorectomized osteoporosis and is an excellent model for postmenopausal osteoporosis as a geriatric osteoporosis.

Data set [2] has the same test system. The experiment in a line: Animal experiment: oral administration to ovary-extracted mice on low-calcium feed, dry weight of femurs and tibia microscopy. Type of data set: in vivo, female ddY mice. From the text: According to what is done conventionally, female ddY mice, 4-week-old, which had been grouped into 34 heads/group based on their body weight, were anesthetized with sodium pentobarbital, and extracted their ovaries. From the next day, the mice were orally administered with “TREHAOSE®”, a crystalline trehalose powder containing at least 98% trehalose, d.s.b., commercialized by Hayashibara Shoji, Inc, Okayama, Japan, which had been dissolved in distilled water, at a dose of 0.01, 0.1 or 1 g/kg body weight per shot once every day, five shots in a week. […] The feed used was a low-calcium feed for ease of making the difference of the bone content.
In parallel, the following control groups were provided and treated similarly as the group with trehalose: As control 1, a group in which mice were administered with the same amount of distilled water as the aqueous trehalose solution in place of the trehalose solution; as control 2, a group in which mice were administered with estradiol, as a therapeutic agent for osteoporosis, dissolved in the same amount of distilled water as the aqueous trehalose solution in place of the trehalose solution, at a dose of one mg/kg body weight/shot, two times a week; and as control 3, a group in which mice, which were received with a laparotomy pseudo-operation and not extracted their ovaries, were administered with the same amount of distilled water as the aqueous trehalose solution in place of the trehalose solution. Some of the mice administered with trehalose at a dose of 0.1 g/kg body weight/shot, and the mice in controls 1 and 3 as groups with no trehalose were extracted their tibias, followed by observing the tibias microscopically. The specimens for microscopic observation were prepared in the usual manner by immobilizing the extracted tibias with formalin solution, washed with water, delimed, split along with the long axis, and treated with protease K to remove bone marrow cells. The specimens of tibias were observed by a relatively-low vacuum electron-microscope under 24 magnifications, and photographed. The data are respectively in FIGS. 1 to 3. In these figures, white parts are the trabecula of cancellous bone. The osteoporosis occurred in the mice extracted their ovaries is called oophorectomized osteoporosis and is an excellent model for postmenopausal osteoporosis as a geriatric osteoporosis.

Data set [3] has as its system osteoclasts. Description: Osteoclast count in cultured bone marrow cells from tibias of orally treated mice (tartaric-acid-resistant acid phosphatase staining). Type of data set: cell-based, ddY mice. The following applies: bone marrow cells from mice given oral 0.1 g/kg body weight/shot; control 1 at least 3-times. An excerpt:
Similarly as above, the tibias were extracted from some mice, excluding the aforesaid mice which had been extracted their tibias, in the group with trehalose at a dose of 0.1 g/kg body weight/shot, and in the groups 1 and 3. From each tibia, bone marrow cells were collected in the usual manner and suspended in α-MEM medium, supplemented with 10 v/v % fetal calf serum, to give a cell density of 1.5×10^6 cells/ml. The resulting cell suspensions were respectively placed in 24-well plates in a volume of 0.5 ml/well. To each well was added 0.25 ml/well of a cell suspension with a cell density of 4×10^4 cells/ml of osteoblast-like cells suspended in a fresh preparation of the same medium as above. A solution of 4×10^9M 1α, 25-dihydroxy vitamin D3, dissolved in a fresh preparation of the same medium as above, was added to each well in a volume. of 0.25 ml/well. The resulting cell suspension mixtures were incubated in a 5 v/v % CO2 incubator at 37° C. for six days while replacing the media with a fresh preparation of α-MEM medium containing 1×10^9M 1α, 25-dihydroxy vitamin D3 and 10 v/v % fetal calf serum.
After completion of the culture, the supernatants were removed, and the cells in each well were fixed with formalin, and treated in the usual manner with “NAPHTHOL AS-MS PHOSPHATE” and “RED VIOLET LB SALT”, which are commercialized by Sigma Chemical Company, ST. […]

Data set [4] relates to ddY mice. As to conditions: mouse, in vivo. As for the experimental part: An adequate amount of “TREHAOSE®”, a crystalline trehalose powder having at least 98% of trehalose, d.s.b., commercialized by Hayashibara Shoji, Inc., Okayama, Japan, was dissolved in physiological saline containing 5 w/w % gum arabic, and the solution was sterilized in the usual manner. The sterilized solution was injected intraperitoneally or orally administered using a gastric tube to ddY mice, 20-25 g weight, in a group of 10 heads, followed by the observation for seven days. As a result, independently of the administration routes, no mouse died even administered with the maximum dose, 15 g/kg body weight.

For data set [5], the system named is osteoclasts. Description: Osteoclast count in cultured bone marrow cells from tibias of intravenously treated mice (tartaric-acid-resistant acid phosphatase staining). The following applies: bone marrow cells from mice given 10% trehalose solution, about 5 ml/kg body weight/shot; control 1 at least 3-times. Type of data set: cell-based, ddY mice. How it is done:
Similarly as above, the tibias were extracted from some mice, excluding the aforesaid mice which had been extracted their tibias, in the group with 10% trehalose solution at a dose of about 5 ml/kg body weight/shot, and in the groups 1 and 3. From each tibia, bone marrow cells were collected in the usual manner and suspended in α-MEM medium, supplemented with 10 v/v % fetal calf serum, to give a cell density of 1.5×10^6 cells/ml. The resulting cell suspensions were respectively placed in 24-well plates in a volume of 0.5 ml/well. To each well was added 0.25 ml/well of a cell suspension with a cell density of 4×10^4 cells/ml of osteoblast-like cells suspended in a fresh preparation of the same medium as above. A solution of 4×10^9M 1α, 25-dihydroxy vitamin D3, dissolved in a fresh preparation of the same medium as above, was added to each well in a volume of 0.25 ml/well. The resulting cell suspension mixtures were incubated in a 5 v/v % CO2 incubator at 37° C. for six days while replacing the media with a fresh preparation of α-MEM medium containing 1×10^9M 1α, 25-dihydroxy vitamin D3 and 10 v/v % fetal calf serum.
After completion of the culture, the supernatants were removed, and the cells in each well were fixed with formalin, and treated in the usual manner with “NAPHTHOL AS-MS PHOSPHATE” and “RED VIOLET LB”, which are commercialized by Sigma Chemical Company, ST. […]

[6] abbreviates: one mg/kg body weight/shot, two times a week (control 2), ovary-extracted mice.
Where [7] appears, read: oral 0.01 g/kg body weight/shot, once daily, five shots a week, ovary-extracted mice.
Setting [8] is: oral 0.1 g/kg body weight/shot, once daily, five shots a week, ovary-extracted mice.
The mark [9] stands for this setting: oral 1 g/kg body weight/shot, once daily, five shots a week, ovary-extracted mice.

On to `OC[C@H]1O[C@H](O[C@H]2[C@H](O)[C@@H](O)C(O)O[C@@H]2CO)[C@H](O)[C@@H](O)[C@@H]1O` (mixture of isomers) [maltose, reference compound], for which, in data set [1], the “Bone content compared with the control groups (ovaries extracted, PBS)” value was “no significant difference”.
Regarding `C[C@]12CC[C@@H]3c4ccc(O)cc4CC[C@H]3[C@@H]1CC[C@@H]2O` [Estradiol, estradiol, reference compound], in data set [2] (setting [6]), the “Dry weight of extracted tibia” value is 119.9 ± 7.5 mg and the “Dry weight of extracted tibia / Body weight” value was 3.520 ± 0.240 mg/g.
Regarding `OC[C@H]1O[C@H](O[C@H]2O[C@H](CO)[C@@H](O)[C@H](O)[C@H]2O)[C@H](O)[C@@H](O)[C@@H]1O` [Trehalose, trehalose], the “Dry weight of extracted tibia” value in data set [2] (setting [7]) is 83.6 ± 7.0 mg; in data set [2] (setting [8]), 85.0 ± 5.2 mg; in data set [2] (setting [9]) it was 88.4 ± 6.4 mg; in data set [1] (0.1 w/w % trehalose solution), 84.2 ± 6.9 mg; in data set [1] (1 w/w % trehalose solution), 86.9 ± 6.1 mg; in data set [1] (10 w/w % trehalose injection) it was 89.7 ± 5.5 mg. The “Dry weight of extracted tibia / Body weight” value worked out at 2.643 ± 0.195 mg/g in data set [2] (setting [7]); 2.723 ± 0.163 mg/g in data set [2] (setting [8]); 2.762 ± 0.172 mg/g in data set [2] (setting [9]); 2.639 ± 0.213 mg/g in data set [1] (0.1 w/w % trehalose solution); 2.716 ± 0.191 mg/g in data set [1] (1 w/w % trehalose solution); 2.777 ± 0.170 mg/g in data set [1] (10 w/w % trehalose injection). Further, the “Reduction of trabecula in cancellous bone and expansion of the cavity of marrow (tibia, electron microscope x24, FIG. 1)” value in data set [2] (oral 0.1 g/kg body weight/shot, ovary-extracted mice) was “clearly inhibited”. Further, the “Abnormality induced by the administration” value is reported as “No abnormality” in data set [2] (oral, observation throughout the experiment) and “No abnormality” in data set [1] (intravenous, observation throughout the experiment). Also, the “Dose at which the inhibitory effect on the lowering of the bone content was found” value in data set [2] (oral, ovary-extracted mice) was “about 0.1 g/kg body weight/shot”. The “Number of osteoclasts relative to control 2 (times higher)” value in data set [3] and in data set [5] was “about 2 times” throughout. The “Death at the maximum dose” value in data set [4] (ip) and in data set [4] (po) was “no mouse died” in each case. Further, the “Trehalose concentration at which the inhibitory effect on the lowering of bone content was found” value in data set [1] (intravenous, about 5 ml/kg body weight/shot) is on record as roughly 1 w/w %. In data set [1] (one w/w % trehalose solution, intravenous 5 ml/kg body weight/shot), the “Reduction of the trabecula in cancellous bone and expansion of the cavity of marrow (tibia, electron microscope x24, FIG. 4)” value was “clearly inhibited”.
On to `OC[C@@H](O)[C@@H](O)[C@H](O)[C@@H](O)CO` [sorbitol, reference compound], for which, in data set [1], the “Bone content compared with the control groups (ovaries extracted, PBS)” value is on record as “no significant difference”.
As for `OC[C@H]1O[C@@](CO)(O[C@H]2O[C@H](CO)[C@@H](O)[C@H](O)[C@H]2O)[C@@H](O)[C@@H]1O` [sucrose, reference compound], the “Bone content compared with the control group (ovaries extracted, distilled water)” value in data set [2] (administered in place of trehalose, data not shown) is on record as “no significant difference”.
Consider `OC[C@@H](O)[C@H](O)[C@@H](O)CO` [xylitol, reference compound], for which the “Bone content compared with the control groups (ovaries extracted, PBS)” value in data set [1] was “no significant difference”.
